Measured values from paper PMC8199755, “In Vitro and In Vivo Trypanocidal Efficacy of Synthesized Nitrofurantoin Analogs” (Molecules, 2021).
Where two headings read alike, the source gives them in different places.

Assays:
T. b. gambiense IL1922 = test: In vitro trypanocidal activity (CellTiter-Glo, 3 days); format: cell-based; conditions: Trypanosoma brucei, 72 h, bloodstream forms, 37 °C, mean ± SD of triplicate, read-out: Trypanocidal Activity IC50 ± SD, Tbg IL1922
Experimental: (§1) The bloodstream forms of T. b. brucei GUTat3.1, T. b. rhodesiense IL1501, T. b. rhodesiense Chirundu, T. b. gambiense IL1922, and T. evansi Tansui strains were propagated in culture at 37 °C, whereas the T. congolense IL3000 strain was propagated at 33 °C in Hirumi’s modified Iscove’s medium-9, supplemented with 20% heat-inactivated fetal bovine serum. The bloodstream form cultures were maintained by replacing the entire culture supernatant with fresh medium, every other day.
(§2) The trypanocidal activity and cytotoxicity of nitrofurantoin analogs were evaluated according to previous reports, with some modifications. In brief, bloodstream forms adjusted at 2.5 × 10^3 cells/mL (T. b. brucei GUTat3.1, T. b. gambiense IL1922, and T. b. rhodesiense IL1501), 1 × 10^4 cells/mL (T. evansi Tansui and T. b. rhodesiense Chirundu), and 1 × 10^5 cells/mL (T. congolense IL3000), were cultivated in Nunc® MicroWell 96-well optical bottom plates (Thermo Fisher Scientific, Waltham, MA, USA) and exposed to various analogs at seven different concentrations for 3 days, in an incubator at 37 °C (33 °C for T. congolense IL3000). […] Twenty-five microliters of the Cell-TiterGlo® (Promega, Madison, WI, USA) reagent was added into each well, and bioluminescence was measured using a GloMax®-Multi+Detection System plate reader (Promega).
(§3) The half maximum inhibitory concentration (IC50) of each analog in trypanosomes and the Madin–Darby bovine kidney cells was calculated using the GraphPad Prism version 8 software (GraphPad, Inc., San Diego, CA, USA).

T. evansi Tansui = test: as above; format: cell-based; conditions: 72 h, bloodstream forms, 37 °C, mean ± SD of triplicate, read-out: Trypanocidal Activity IC50 ± SD, Tev Tansui
Experimental: as §1, §2, §3

T. b. brucei GUTat3.1 = test: as above; format: cell-based; conditions: Trypanosoma brucei, 72 h, bloodstream forms, 37 °C, mean ± SD of triplicate, read-out: Trypanocidal Activity IC50 ± SD, Tbb GUTat3.1
Experimental: as §1, §2, §3

T. congolense IL3000 = test: as above; format: cell-based; conditions: bloodstream forms, 33 °C, mean ± SD of triplicate, read-out: Trypanocidal Activity IC50 ± SD, Tc IL3000
Experimental: as §1, §2, §3

T. b. rhodesiense IL1501 = test: as above; format: cell-based; conditions: Trypanosoma brucei, 72 h, bloodstream forms, 37 °C, mean ± SD of triplicate, read-out: Trypanocidal Activity IC50 ± SD, Tbr IL1501
Experimental: as §1, §2, §3

[1] = Cytotoxicity (Cell Counting Kit-8, 3 days); format: cell-based, bovine; conditions: bovine, 37 °C, mean ± SD of triplicate
Experimental: Additionally, Madin–Darby bovine kidney cells were cultivated (density, 1 × 10^4 cells/mL) in a 96-well cell culture plate (Thermo Fisher Scientific) with the analogs, at seven different concentrations for 3 days at 37 °C. Next, 10 µl of the Cell Counting Kit-8 solution (Dojindo, Kumamoto, Japan) was added into each well […] 4 h of incubation. Absorbance was measured at 450 nm using a GloMax®-Multi+Detection System plate reader.
as §3

[2] = system: T. b. rhodesiense Chirundu; test: In vitro trypanocidal activity (CellTiter-Glo, 3 days); format: cell-based; conditions: Trypanosoma brucei, 72 h, bloodstream forms, 37 °C, mean ± SD of triplicate, read-out: Trypanocidal Activity IC50 ± SD, Tbr Chirundu
Experimental: as §1, §2, §3

[3] = Madin–Darby bovine kidney (MDBK) cells

Row | Compound | IC50 (T. b. gambiense IL1922) [nM] | IC50 (T. evansi Tansui) [nM] | IC50 (T. b. brucei GUTat3.1) [nM] | IC50 (T. congolense IL3000; Trypanosoma congolense, 72 h) [nM] | IC50 (T. congolense IL3000) [nM] | IC50 (T. b. rhodesiense IL1501) [nM] | IC50 at 3 days [1, 3] [nM] | IC50 [2] [nM] | IC50 at 3 days ([1]; MDBK cells) [nM]
1 | CN1C(=O)CN(/N=C/c2ccc([N+](=O)[O-])o2)C1=O [Analog 1, (E)-3-Methyl-1-([(5-nitrofuran-2-yl)methylene]amino)imidazolidine-2,4-dione] | 3600 ± 260 | 1610 ± 98 | 3610 ± 400 | 190 to 730 | 190 ± 76 | 7020 ± 94 | 65200 ± 12800 |  | 
2 | CCN1C(=O)CN(/N=C/c2ccc([N+](=O)[O-])o2)C1=O [Analog 2, (E)-3-Ethyl-1-([(5-nitrofuran-2-yl)methylene]amino)imidazolidine-2,4-dione] | 11300 ± 4800 | 5390 ± 530 | 10800 ± 4840 |  |  | 11400 ± 5240 | 44800 ± 1690 |  | 
3 | CCCN1C(=O)CN(/N=C/c2ccc([N+](=O)[O-])o2)C1=O [Analog 3, (E)-1-([(5-Nitrofuran-2-yl)methylene]amino)-3-propylimidazolidine-2,4-dione] | 14700 ± 1320 | 6530 ± 610 | 14100 ± 340 | 330 ± 180 |  | 14000 ± 1420 | 39300 ± 1090 | 810 ± 240 | 
4 | CCCCN1C(=O)CN(/N=C/c2ccc([N+](=O)[O-])o2)C1=O [Analog 4, (E)-3-Butyl-1-([(5-nitrofuran-2-yl)methylene]amino)imidazolidine-2,4-dione] | 17200 ± 2230 | 7890 ± 530 | 33300 ± 24300 | 310 ± 200 |  | 32700 ± 820 | 35800 ± 3490 | 1380 ± 340 | 
5 | CCCCCN1C(=O)CN(/N=C/c2ccc([N+](=O)[O-])o2)C1=O [Analog 5, (E)-1-([(5-Nitrofuran-2-yl)methylene]amino)-3-pentylimidazolidine-2,4-dione] | 3420 ± 1470 | 5440 ± 170 | 4240 ± 1990 | 350 ± 150 |  | 5690 ± 1660 | 39100 ± 5860 |  | 
6 | CCCCCCN1C(=O)CN(/N=C/c2ccc([N+](=O)[O-])o2)C1=O [Analog 6, (E)-3-Hexyl-1-([(5-nitrofuran-2-yl)methylene]amino)imidazolidine-2,4-dione] | 2590 ± 280 | 3760 ± 470 | 5760 ± 4010 | 80 ± 47 |  | 2610 ± 120 | 25200 ± 3520 | 170 ± 110 | 
7 | CCCCCCCN1C(=O)CN(/N=C/c2ccc([N+](=O)[O-])o2)C1=O [Analog 7, (E)-3-Heptyl-1-([(5-nitrofuran-2-yl)methylene]amino)imidazolidine-2,4-dione] | 1990 ± 750 | 1020 ± 100 | 2060 ± 750 | 40 ± 11 |  | 1450 ± 860 | 92300 ± 6520 | 56 ± 26 | 
8 | CCCCCCCCCCN1C(=O)CN(/N=C/c2ccc([N+](=O)[O-])o2)C1=O [Analog 10, (E)-3-Decyl-1-([(5-nitrofuran-2-yl)methylene]amino)imidazolidine-2,4-dione] | 620 ± 700 | 280 ± 25 | 650 ± 560 | 11 ± 4.4 |  | 610 ± 60 | 110000 ± 14400 | 17 ± 4.4 | 
9 | O=C1CN(/N=C/c2ccc([N+](=O)[O-])o2)C(=O)N1CCCc1ccccc1 [Analog 13, (E)-1-([(5-Nitrofuran-2-yl)methylene]amino)-3-(3-phenylpropyl)imidazolidine-2,4-dione] | 4830 ± 3220 | 3110 ± 370 | 7290 ± 3160 | 140 ± 30 |  | 5900 ± 3750 | > 281000 | 140 ± 67 | 
10 | O=C1CN(/N=C/c2ccc([N+](=O)[O-])o2)C(=O)N1Cc1ccccc1 [Analog 14, (E)-3-Benzyl-1-([(5-nitrofuran-2-yl)methylene]amino)imidazolidine-2,4-dione] | 2340 ± 640 | 1260 ± 100 | 2880 ± 260 | 180 ± 17 |  | 2830 ± 610 | > 305000 | 270 ± 120 | 
11 | Cc1ccc(CN2C(=O)CN(/N=C/c3ccc([N+](=O)[O-])o3)C2=O)cc1 [Analog 15, (E)-3-(p-Methylbenzyl)-1-([(5-nitrofuran-2-yl)methylene]amino)imidazolidine-2,4-dione] | 2890 ± 510 | 4230 ± 400 | 8240 ± 3110 | 130 ± 44 |  | 6100 ± 47 | 34300 ± 11500 | 150 ± 68 | 
12 | O=C1CN(/N=C/c2ccc([N+](=O)[O-])o2)C(=O)N1Cc1ccc(C(F)(F)F)cc1 [Analog 16, (E)-1-([(5-Nitrofuran-2-yl)methylene]amino)-3-(p-(trifluoromethyl)benzyl) imidazolidine-2,4-dione] | 610 ± 260 | 440 ± 46 | 520 ± 81 | 20 |  | 960 ± 8.7 | 56600 ± 40800 | 20 ± 12 | 
13 | O=C1CN(/N=C/c2ccc([N+](=O)[O-])o2)C(=O)N1Cc1ccc([N+](=O)[O-])cc1 [Analog 17, (E)-3-(p-Nitrobenzyl)-1-([(5-nitrofuran-2-yl)methylene]amino)imidazolidine-2,4-dione] | 1050 ± 700 | 610 ± 50 | 1070 ± 740 | 40 ± 17 |  | 500 ± 12 |  | 40 ± 94 | 20100 ± 1020
14 | COc1ccc(CN2C(=O)CN(/N=C/c3ccc([N+](=O)[O-])o3)C2=O)cc1 [Analog 18, (E)-3-(p-Methoxybenzyl)-1-([(5-nitrofuran-2-yl)methylene]amino)imidazolidine-2,4-dione] | 9780 ± 310 | 2400 ± 190 | 9910 ± 92 | 140 ± 30 |  | 10100 ± 620 | 80100 ± 36900 | 330 ± 220 | 
15 | O=C1CN(/N=C/c2ccc([N+](=O)[O-])o2)C(=O)N1Cc1ccc(Br)cc1 [Analog 19, (E)-3-(p-Bromobenzyl)-1-([(5-nitrofuran-2-yl)methylene]amino)imidazolidine-2,4-dione] | 2040 ± 91 | 1150 ± 110 | 2130 ± 230 | 49 ± 33 |  | 2470 ± 690 | 28700 ± 5690 | 41 ± 25 | 
16 | NCCCC(N)(C(=O)O)C(F)F (stereo not drawn) [Eflornithine, reference compound] | 36700 ± 12900 | 57200 ± 17600 | 38600 ± 9880 | 16100 ± 2930 |  | 46000 ± 17100 |  | 35600 ± 10200 | 
17 | CC1CS(=O)(=O)CCN1/N=C/c1ccc([N+](=O)[O-])o1 (stereo not drawn) [Nifurtimox, reference compound] | 4580 ± 2380 | 2620 ± 1400 | 4660 | 1060 ± 220 |  | 4350 ± 1590 |  | 1460 ± 350 | 
18 | N=C(N)c1ccc(OCCCCCOc2ccc(C(=N)N)cc2)cc1 [Pentamidine, reference compound] | 14 ± 3.1 | 0.97 ± 0.19 | 41 ± 2.3 | 330 ± 54 |  | 29 ± 6.2 |  | 50 ± 12 | 
19 | Cc1ccc(C(=O)Nc2ccc(S(=O)(=O)O)c3cc(S(=O)(=O)O)cc(S(=O)(=O)O)c23)cc1NC(=O)c1cccc(NC(=O)Nc2cccc(C(=O)Nc3cc(C(=O)Nc4ccc(S(=O)(=O)O)c5cc(S(=O)(=O)O)cc(S(=O)(=O)O)c45)ccc3C)c2)c1 [Suramin, reference compound] | 64 ± 1.8 | 380 ± 58 | 66 ± 5.2 | 7170 ± 870 |  | 76 ± 11 |  | 66 ± 71 | 
